Assay: Excipient compatibility study (colour change / ascorbic acid degradation)
Format: physicochemical
Details: presence of metallic cations (such as Cu2+, Fe3+, Zn2+)
Method: Excipient compatibility studies with all excipients against Na picosulfate and ascorbic acid were carried out. Antioxidants like Na meta-bisulphite, Na bisulphite and Na sulphite were added. Further, the study was carried out to determine if citric acid helped stabilize the colour change of ascorbic acid. Samples were assessed at 1 week, 2 weeks, 4 weeks and at 8 weeks.
Tertiary mixtures with components (250 mg MgO+500 mg AA+25 mg Sulphites (or 100 mg Acids) • MgO+ascorbic acid+Na meta-sulphite • MgO+ascorbic acid+Na bisulphite • MgO+ascorbic acid+Na sulphite • MgO+ascorbic acid+citric acid • MgO+ascorbic acid+tartaric acid • MgO+sodium ascorbate+Na meta-sulphite • MgO+sodium ascorbate+Na bisulphite • MgO+sodium ascorbate+Na sulphite • MgO+sodium ascorbate+citric acid • MgO+sodium ascorbate+tartaric acid Quaternary mixtures with components ((250 m, MgO+500 mg AA+20 mg NaP+25 Sulphites (or 100 mg acids) • MgO+Na picosulfate+ascorbic acid+Na meta-sulphite • MgO+Na picosulfate+ascorbic acid+Na bisulphite • MgO+Na picosulfate+ascorbic acid+Na sulphite • MgO+Na picosulfate+ascorbic acid+citric acid • MgO+Na Picosulfate+ascorbic acid+tartaric acid
Binary, tertiary and quaternary mixtures of the API and excipients at various ratios were prepared as follows: • 1. […] Add approximately half of the excipient quantity into a container. • 3. […]

O=C1O[C@H]([C@@H](O)CO)C(O)=C1O [ascorbic acid]
Degradation of ascorbic acid with excipients: degrades in the presence of metallic cations

From US11058671B2, “Formulations and methods of manufacturing formulations for use in colonic evacuation” (RedHill Biopharma Ltd., priority 2012, dated 2021)
